Measurements published in PubChem BioAssay (NCI).
Several values for one entry are separate records, joined by “and”; a condition that tells them apart may be missing. Equal values may be shown once.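 Protocol summary: plate cells (96-well), add compound at 5 concentrations, incubate 48 h, interpolate endpoints linearly. At the GI50, growth is halved. Definition used: TGI = concentration required for complete inhibition of growth.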

Assays:
Assay in all cases: growth of human tumour cells (NCI), 48 h
[1] = test system: COLO 205 colon
[2] = test system: HOP-92 NSCLC
[3] = test system: HS 578T breast
[4] = test system: SF-295 CNS
[5] = test system: SK-OV-3 ovarian
[6] = test system: SN12C renal
[7] = test system: SNB-19 CNS
[8] = test system: SNB-75 CNS
[9] = test system: T-47D breast
[10] = test system: UACC-62 melanoma

SMILES	GI50 [1]	TGI [1]	GI50 [2]	TGI [2]	GI50 [3]	TGI [3]	GI50 [4]	TGI [4]	GI50 [5]	TGI [5]	GI50 [6]	TGI [6]	GI50 [7]	TGI [7]	GI50 [8]	TGI [8]	GI50 [9]	TGI [9]	GI50 [10]	TGI [10]
C=CCN=C(N/N=C/c1ccc([N+](=O)[O-])o1)NS(=O)(=O)c1cc(C(=O)Nc2ccccc2)c(Cl)cc1SCC(N)=O	6.55 µM	> 100 µM	13.6 µM	52.2 µM	15.6 µM	66.3 µM	> 100 µM	> 100 µM	> 100 µM	> 100 µM	29 µM	> 100 µM	33.8 µM	> 100 µM	> 100 µM	> 100 µM	23.1 µM	> 100 µM	17.3 µM	33.3 µM
CN(C)c1ccc(C2CC(C)(O)Oc3cc4c(cc32)OCO4)cc1 (stereo not given)	–	50.3 µM	–	> 100 µM	–	> 100 µM	–	> 100 µM	–	> 100 µM	–	> 100 µM	–	> 100 µM	–	75.1 µM	–	> 100 µM	–	> 100 µM
CCSc1ncc(Br)c(Sc2nc(N)nc3nc[nH]c23)n1	15.1 µM	52.6 µM	1.97 µM	43.4 µM	7.47 µM	> 100 µM	1.82 µM	> 100 µM	2.76 µM	48.9 µM	4.52 µM	> 100 µM	> 100 µM	> 100 µM	1.57 µM	14 µM	3.07 µM	> 100 µM	2.37 µM	20.4 µM
Cc1nc2c(Br)cc(Br)cc2c(=O)n1-c1ccccc1NC1OCC(O)C(O)C1O (stereo not given)	–	34.2 µM and > 100 µM	–	82.1 µM and > 100 µM	–	> 100 µM	43.1 µM and 14 µM	> 100 µM and 65.3 µM	76.3 µM and 29.9 µM	> 100 µM	46.8 µM and 21.9 µM	> 100 µM	–	> 100 µM	–	> 100 µM and 53.2 µM	–	> 100 µM	31.7 µM and 15.7 µM	> 100 µM and 36.7 µM
Nc1nc(=S)c2[nH]cnc2[nH]1	0.998 µM and 2.35 µM and 2.52 µM	5.68 µM [middle of 4 runs]	–	4.44 µM and 26.8 µM and 32.4 µM	4.13 µM	–	0.209 µM and 1.24 µM	–	0.293 µM and 0.784 µM	8.82 µM and 17.5 µM and > 86 µM	–	> 100 µM and 171 µM and > 250 µM	39.2 µM and 89 µM and 48.6 µM	> 100 µM and 241 µM and > 250 µM	–	> 86 µM and 45.8 µM and > 250 µM	0.43 µM and 0.964 µM and 1.25 µM	–	0.295 µM and 0.376 µM and 1.26 µM	–
N#CCC1(n2cc(-c3ncnc4[nH]ccc34)cn2)CN(C2CCN(C(=O)c3ccnc(C(F)(F)F)c3F)CC2)C1	57.8 µM	> 100 µM	20.7 µM	> 100 µM	28.1 µM	> 100 µM	53.9 µM	> 100 µM	> 100 µM	> 100 µM	69.8 µM	> 100 µM	> 100 µM	> 100 µM	25.7 µM	> 100 µM	51.7 µM	> 100 µM	76.4 µM	> 100 µM
C#Cc1cccc(NC(=O)C2CCCN(C(=O)CCl)C2)c1 (stereo not given)	21.5 µM	45 µM	> 82.5 µM	> 82.5 µM	> 82.5 µM	> 82.5 µM	> 82.5 µM	> 82.5 µM	> 82.5 µM	> 82.5 µM	19.7 µM	> 82.5 µM	> 82.5 µM	> 82.5 µM	> 82.5 µM	> 82.5 µM	> 82.5 µM	> 82.5 µM	> 82.5 µM	> 82.5 µM
C[C@]12CCC3=NCCN3C1=CC[C@@H]1[C@@H]2CC[C@@]2(C)[C@H]1CC[C@]2(C)O	–	75.5 µM	–	> 100 µM	–	74.7 µM	–	42.6 µM	–	> 100 µM	–	> 100 µM	–	> 100 µM	–	> 100 µM	–	> 100 µM	–	76.4 µM
CCCCCCCCCCCCOC1C(C(CC(=O)N2CCN(Cc3ccc4c(c3)OCO4)CC2)NS(=O)(=O)c2cc(Cl)cc(Cl)c2)OC2OC(C)(C)OC21 (stereo not given)	11.7 µM	> 78.3 µM	15.1 µM	> 62.8 µM	9.17 µM	> 68.9 µM	26.3 µM	> 100 µM	> 100 µM	> 100 µM	15.6 µM	43.2 µM	44.7 µM	> 100 µM	> 45 µM	> 100 µM	28.9 µM	> 100 µM	> 63.3 µM	> 100 µM
Cn1ccnc1C(=O)/C=C/c1ccc(C(=O)Nc2c(F)c(F)c(F)c(F)c2F)cc1	1.82 µM	3.63 µM	2.11 µM	7.33 µM	2.1 µM	6.44 µM	1.85 µM	3.64 µM	3.24 µM	10.1 µM	1.77 µM	3.69 µM	1.56 µM	3.24 µM	1.33 µM	2.69 µM	1.29 µM	3.4 µM	2.08 µM	5.17 µM
Cc1ccc(C2=C(Cl)C(=O)C(c3ccc(C)cc3)=C(Cl)C2=O)cc1	–	> 100 µM	–	> 100 µM	–	> 100 µM	–	> 100 µM	–	> 100 µM	–	> 100 µM	–	> 100 µM	–	> 100 µM	–	> 100 µM	–	> 100 µM
COc1ccc(/C(C)=C(\c2ccc(Cl)cc2)c2ccc(OCCN3CCCCCC3)cc2)cc1F	1.62 µM	7.47 µM	2.57 µM	6.62 µM	2.69 µM	6.51 µM	2.69 µM	5.61 µM	5.05 µM	16.6 µM	2.96 µM	8.3 µM	5.13 µM	> 16.7 µM	4.16 µM	13.3 µM	3.47 µM	15.1 µM	3.52 µM	8.02 µM
COc1cc(OC)cc(-c2ccc(-c3ccc(C(=N)N)cn3)s2)c1	2.11 µM	4.62 µM	1.7 µM	3.52 µM	1.86 µM	3.98 µM	1.79 µM	3.39 µM	11.3 µM	26.2 µM	1.78 µM	3.8 µM	1.8 µM	3.59 µM	1.44 µM	2.86 µM	2.1 µM	5.09 µM	1.85 µM	3.54 µM
CC1=C(CNO)C2=C(C)C3(CC3)[C@@](C)(O)C(=O)C2=C1	1.09 µM	3.83 µM	1.12 µM	4.62 µM	2.7 µM	9.18 µM	0.982 µM	4.42 µM	1.13 µM	5.22 µM	2.77 µM	> 100 µM	1.81 µM	25.5 µM	1.38 µM	2.86 µM	1.21 µM	8.47 µM	1.8 µM	3.73 µM
NC(N)=N/N=C(/c1ccccc1)c1ccccc1F	2.16 µM	7.01 µM	18.3 µM	> 81.5 µM	2.79 µM	11.6 µM	2.43 µM	14.3 µM	4.82 µM	37.9 µM	5.98 µM	31.3 µM	4.19 µM	31.3 µM	0.661 µM	21.7 µM	12.6 µM	41.3 µM	4.54 µM	20.7 µM
COc1ccc(/C=C\c2cc(OC)c(OC)c(OC)c2)c(NS(=O)(=O)c2ccc(C(C)(C)C)cc2)c1O	3.32 µM	12.5 µM	0.189 µM	5.92 µM	0.521 µM	19.9 µM	1.37 µM	15 µM	1.42 µM	45.9 µM	0.618 µM	21.4 µM	0.56 µM	26.6 µM	0.231 µM	14.1 µM	16.8 µM	52.3 µM	0.113 µM	17.5 µM
COC(=O)[C@H](Cc1cn(C)cn1)NC(=O)[C@@H](NC(=O)Nc1cc(C(F)(F)F)cc(C(F)(F)F)c1)C(C)C	4.94 µM	> 10 µM	5.48 µM	> 10 µM	4.83 µM	> 10 µM	> 10 µM	> 10 µM	> 10 µM	> 10 µM	1.88 µM	3.97 µM	6.71 µM	> 10 µM	6.44 µM	> 10 µM	3.14 µM	> 10 µM	8.58 µM	> 10 µM
CCN1CCN(c2nc(NNC(=O)c3ccccc3)nc(N3CCN(C(c4ccccc4)c4ccccc4)CC3)n2)CC1	1.9 µM	3.83 µM	1.39 µM	3.7 µM	3.3 µM	22.3 µM	4.58 µM	16.3 µM	5.93 µM	22.1 µM	2.89 µM	8.97 µM	4.28 µM	17.8 µM	3.96 µM	18.1 µM	3.16 µM	31.2 µM	1.96 µM	4.29 µM
COc1ccc(Cc2nc3cc(OC)c(OC)cc3c(=O)[nH]2)cc1	2.33 µM	6.93 µM	21.9 µM	> 100 µM	9.98 µM	99.2 µM	5.21 µM	> 26.9 µM	88.5 µM	> 100 µM	11.2 µM	> 100 µM	7.23 µM	> 100 µM	9.79 µM	40.1 µM	21.5 µM	> 100 µM	8.74 µM	34.5 µM
CC1OC(OC2C(O[C@H]3CC[C@@]4(C)C(=CC[C@H]5[C@@H]6C[C@@H]7O[C@]8(CC[C@@H](C)CO8)[C@@H](C)[C@@H]7[C@@]6(C)CC[C@@H]54)C3)OC(CO)C(OC3OC(CO)C(O)C3O)C2O)C(O)C(O)C1O (stereo not given in full)	0.381 µM	1.24 µM and 1.29 µM	1.22 µM	1.98 µM and 2.46 µM	–	1.78 µM and 2.24 µM	0.448 µM	1.53 µM and 1.62 µM	1.29 µM	1.76 µM and 2.55 µM	0.243 µM	1.22 µM and 0.678 µM	0.649 µM	1.48 µM and 1.82 µM	–	1.62 µM	1.39 µM	2.68 µM	0.349 µM	1.5 µM and 1.07 µM
COc1ccc(/C=C/C(C)=N/OCC(=O)Nc2ccc(Cl)cc2)cc1	3.64 µM	14 µM	0.561 µM	4.68 µM	5.85 µM	78.5 µM	2.96 µM	14.9 µM	5.27 µM	42.4 µM	2.8 µM	> 47.7 µM	3.16 µM	> 60.1 µM	3.21 µM	32.6 µM	1.63 µM	24.8 µM	1.21 µM	6.46 µM
O=c1nc2[nH]c3c(-c4n[nH]c(=O)[nH]c4=O)cccc3c2n[nH]1	> 100 µM	> 100 µM	78.1 µM	> 100 µM	> 100 µM	> 100 µM	> 100 µM	> 100 µM	> 100 µM	> 100 µM	> 100 µM	> 100 µM	> 100 µM	> 100 µM	> 100 µM	> 100 µM	> 100 µM	> 100 µM	> 100 µM	> 100 µM
O=C(Oc1ccc2c(c1)CN(Cc1ccccc1)CO2)c1ccccc1	–	31 µM	–	28.2 µM	–	61.5 µM	–	38.4 µM	–	34 µM	–	34.1 µM	–	34.1 µM	–	32.5 µM	–	70 µM	–	30.5 µM
COc1c(O)c2c3c(c1OC)-c1ccccc1CC3N(S(=O)(=O)c1ccc(C)cc1)CC2 (stereo not given)	19.2 µM	> 50 µM	1.41 µM	29 µM	1.2 µM	4.03 µM	2.07 µM	30.6 µM	1.96 µM	38.4 µM	2.59 µM	> 50 µM	3.29 µM	> 50 µM	0.933 µM	3.92 µM	1.56 µM	27.9 µM	2.41 µM	> 50 µM
COc1ccc(-c2cc(-c3ccccc3)nc(NCCNc3ccnc4cc(Cl)ccc34)n2)cc1	1.84 µM	3.83 µM	1.17 µM	2.57 µM	1.81 µM	3.78 µM	1.8 µM	3.49 µM	1.78 µM	3.34 µM	1.61 µM	3.3 µM	1.77 µM	3.68 µM	1.6 µM	3.05 µM	0.812 µM	2.61 µM	1.84 µM	3.52 µM
